Results reported in patent US11680086B2, “Lipopeptide for potently inhibiting HIV, derivative thereof, pharmaceutical composition thereof and use thereof” (Institute of Pathogen Biology, Chinese Academy of Medical …, priority 2017, dated 2023).
Peptide text beside a SMILES is read from it. * marks the point of attachment. Stearoyl = CCCCCCCCCCCCCCCCCC(=O)*

Columns and labels:
SHIV strain SF162P3 = assay: therapeutic effect in monkey infection model; assay type: in vivo, Chinese rhesus monkeys
Method: Six adult Chinese rhesus monkeys (numbered A to F, half male and half female) were used in the test, and antibodies to SIV, herpesvirus B, and simian T-lymphotropic virus were determined to be negative. The SHIV strain SF162P3 was provided by the AIDS Reagent Program of NIH in the United States, and was amplified on peripheral blood mononuclear cells (PBMC) of the monkeys, and the TCID50 was determined. Monkeys were intravenously inoculated with 1,000 TCID50 of the SF162P3 virus, and changes in plasma viral load (RNA copy number/ml) in the monkeys were measured periodically. […] The plasma samples were isolated from monkey bloods collected at predetermined time points and the plasma viral load (RNA copy number/ml) was determined by quantitative real-time reverse transcription-polymerase chain reaction (qRT-PCR). The plasma RNA was extracted by a conventional method and cDNA samples were synthesized by reverse transcription reaction. […] The PCR device used was PE AB17500. The sensitivity of the assay was 100 RNA copies per milliliter of plasma sample.

[1] = pharmacokinetic analysis in SD rats; conditions: for level at 72 h / level at time molar at 72 h: both, SD, rat, serum, 6 mg/kg
Method: The pharmacokinetic parameters were calculated using a non-compartmental analysis model (NCA).

Figure 9 = assay: Figure 9
From the text: Table printed on a drawing sheet, Figure 9
First reader's note: Panel B of Figure 9; each value cell holds the value ± its error, and each column is one route of administration.

CCCCCCCCCCCCCCCCCC(=O)NCCCC[C@H](NC(=O)[C@H](CCC(=O)O)NC(=O)[C@H](CC(C)C)NC(=O)[C@H](CCCCN)NC(=O)[C@H](CCCCN)NC(=O)[C@H](CC(C)C)NC(=O)[C@H](CCC(=O)O)NC(=O)[C@H](CCC(=O)O)NC(=O)[C@H](CCC(=O)O)NC(=O)[C@H](CC(N)=O)NC(=O)[C@H](CCCCN)NC(=O)[C@H](CCCCN)NC(=O)[C@H](CCC(N)=O)NC(=O)[C@H](CCC(N)=O)NC(=O)[C@H](CCC(=O)O)NC(=O)[C@H](CCC(=O)O)NC(=O)[C@H](C)NC(=O)[C@H](CCCCN)NC(=O)[C@H](CCCCN)NC(=O)[C@H](CC(C)C)NC(=O)[C@H](CC(C)C)NC(=O)[C@H](CCC(=O)O)NC(=O)[C@H](CCC(=O)O)NC(=O)[C@@H](NC(=O)[C@H](CCCCN)NC(=O)[C@H](CCC(N)=O)NC(=O)[C@H](CCC(=O)O)NC(=O)[C@H](Cc1c[nH]c2ccccc12)NC(C)=O)[C@@H](C)CC)C(N)=O [LP-80] (Ac-WEQKIEELLKKAEEQQKKNEEELKKLEK(Stearoyl)-NH2)
monkeys with viral load decreased below the detectable level line (SHIV strain SF162P3; 2 mg/kg s.c. once a day, fourth day after the treatment, six monkeys): three of the six monkeys
rebound of virus (SHIV strain SF162P3; 4th day after administration was stopped): did not rebound
rebound of virus (SHIV strain SF162P3; 10th day after administration was stopped): one of the monkeys (monkey A)
monkeys with viral load not detected (SHIV strain SF162P3; 14th day after the treatment): all six monkeys
rebound of virus (SHIV strain SF162P3; 17th day after administration was stopped): the other 5 monkeys except the monkey C
rebound of viral load (SHIV strain SF162P3; 24th day after administration was stopped): all monkeys
therapeutic effect (in words) (SHIV strain SF162P3; SHIV SF162P3 infected rhesus monkeys): powerful antiviral therapeutic effect
viral load during subsequent treatment (SHIV strain SF162P3; administration once per 4 days for 4 weeks): controlled below the detectable level line
monkeys with viral load not detected (SHIV strain SF162P3; eighth day after the treatment): five monkeys
serum concentration as folds of the IC50 value (2 pM) ([1]; 72 hours after intravenous injection): 1010.56 folds
serum concentration as folds of the IC50 value (2 pM) ([1]; 72 hours after subcutaneous injection): 894.51 folds
level at 72 h ([1]; iv): 7.75 ng/mL
level at time molar at 72 h ([1]; iv): 2.02 nM
level at 72 h ([1]; sc): 6.86 ng/mL
level at time molar at 72 h ([1]; sc): 1.79 nM
Fabs | % (Figure 9): 39.53%
